Measured values: publication PMC9060465 (Proceedings of the National Academy of Sciences of the …, 2022)

Legend:
[1] = biological target: T1, GLP-1R (Homo sapiens, UniProt P43220); assay: GRK2 recruitment to the GLP-1R, NanoBRET; format: cell-based; set-up: expressed in transfected cells; host or cells: freestyle HEK cells; conditions: efficacy (% Top), relative to maximal GLP-1; (SEM)
Experimental: After 48 h, transfected cells were incubated in phosphate-buffered saline (PBS) containing 0.1% (wt/vol) bovine casein and varying concentrations of the ligands. […]
The potency (EC50) and efficacy (% Top) for ligands to induce GLP-1R Internalization were
determined using diffusion-enhanced resonance energy transfer.
relative efficacy for NanoBRET assays. SPR data were analyzed using T200 evaluation software (Cytiva). All data are presented as geometric means with SEM and n values
(§1) according to established practices. ND, not determined. NA, not applicable.
Target sequence in this assay (P43220 24-463): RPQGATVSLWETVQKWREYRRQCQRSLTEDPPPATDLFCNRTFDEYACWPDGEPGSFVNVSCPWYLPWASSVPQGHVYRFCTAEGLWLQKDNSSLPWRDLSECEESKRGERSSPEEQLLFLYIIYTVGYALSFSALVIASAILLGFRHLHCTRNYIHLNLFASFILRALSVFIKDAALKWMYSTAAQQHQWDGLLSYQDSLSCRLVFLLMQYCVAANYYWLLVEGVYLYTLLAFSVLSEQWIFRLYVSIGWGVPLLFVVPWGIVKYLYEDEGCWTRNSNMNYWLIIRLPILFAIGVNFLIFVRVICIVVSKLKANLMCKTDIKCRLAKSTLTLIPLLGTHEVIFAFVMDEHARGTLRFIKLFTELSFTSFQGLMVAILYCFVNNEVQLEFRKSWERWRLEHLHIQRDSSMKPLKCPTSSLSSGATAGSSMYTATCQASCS
Target sequence in this assay (P25098 whole entry partner): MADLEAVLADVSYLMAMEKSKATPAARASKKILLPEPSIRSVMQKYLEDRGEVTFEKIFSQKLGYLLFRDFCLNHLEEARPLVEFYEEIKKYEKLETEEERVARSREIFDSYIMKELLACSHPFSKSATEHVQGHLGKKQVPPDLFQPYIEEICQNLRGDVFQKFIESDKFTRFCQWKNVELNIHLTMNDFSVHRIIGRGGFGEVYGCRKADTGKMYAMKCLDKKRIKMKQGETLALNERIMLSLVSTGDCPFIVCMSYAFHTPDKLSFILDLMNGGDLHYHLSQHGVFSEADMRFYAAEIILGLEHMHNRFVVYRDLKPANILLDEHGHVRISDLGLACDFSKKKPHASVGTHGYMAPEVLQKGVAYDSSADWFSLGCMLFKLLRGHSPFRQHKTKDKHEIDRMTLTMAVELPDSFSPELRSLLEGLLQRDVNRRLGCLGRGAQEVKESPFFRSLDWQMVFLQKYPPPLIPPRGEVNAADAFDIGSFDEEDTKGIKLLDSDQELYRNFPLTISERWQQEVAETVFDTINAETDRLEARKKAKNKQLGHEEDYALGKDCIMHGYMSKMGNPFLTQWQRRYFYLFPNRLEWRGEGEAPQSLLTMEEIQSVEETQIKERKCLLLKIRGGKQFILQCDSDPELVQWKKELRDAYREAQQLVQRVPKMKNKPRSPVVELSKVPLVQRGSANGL

[2] = biological target: T1, GLP-1R; assay: GLP-1R low density cAMP accumulation in HEK293 cells; format: cell-based; set-up: expressed in transfected cells; host or cells: HEK293; conditions: efficacy (% Top), normalized to GLP-1(7-36); (SEM)
Experimental: (§2) Fig. 4. […] (B) Ligand-induced GTPγS binding of Gαs was performed using the GIPR-expressing membranes. […] (C) Agonist-stimulated cAMP production was measured in human GIPR expressing HEK293 cells. […] (E) Ligand-induced GTPγS binding of Gαs was performed using the GLP-1R-expressing membranes. […] (F) Agonist-stimulated cAMP production was measured in human GLP-1R-expressing HEK293 cells. […] Data presented are representative of n ≥ 3 independent experiments. Summarized data are shown in SI Appendix, Table 2. log M; log Molar.
(§3) We note that the albumin-binding propensity of fatty acid-modified peptides can confound a pharmacological comparison of molecules, given the common use of albumin and serum as nonspecific blocking agents in biological assays. Therefore, to obviate this, entirely albumin-free assays supplemented with bovine casein or bacitracin were used to prevent nonspecific binding ([10]). […]
(§4) Middle Panel: The affinity (Ki) of ligands for the GLP-1R was […]
(§5) Functional potency (EC50) and efficacy (% Top) of ligands to induce Gα s-GTPγS binding and cAMP accumulation in HEK293 cells expressing GLP-1R were determined. The equilibrium affinity (KD) of ligands for the immobilized ectodomain of the GLP-1R were quantified by surface plasmon resonance. […]
(§6) SPR data were analyzed using T200 evaluation software (Cytiva). All data are presented as geometric means with SEM and n values according to established practices. ND, not determined. NA, not applicable.
Target sequence in this assay (P43220 24-463): as the sequence (P43220 24-463) above

[3] = biological target: T2, human GIPR (Homo sapiens, UniProt P48546); assay: GIPR low density cAMP accumulation in HEK293 cells; format: cell-based
T2 construct: expressed in transfected cells; host or cells: HEK293
T2 sequence (P48546 22-466): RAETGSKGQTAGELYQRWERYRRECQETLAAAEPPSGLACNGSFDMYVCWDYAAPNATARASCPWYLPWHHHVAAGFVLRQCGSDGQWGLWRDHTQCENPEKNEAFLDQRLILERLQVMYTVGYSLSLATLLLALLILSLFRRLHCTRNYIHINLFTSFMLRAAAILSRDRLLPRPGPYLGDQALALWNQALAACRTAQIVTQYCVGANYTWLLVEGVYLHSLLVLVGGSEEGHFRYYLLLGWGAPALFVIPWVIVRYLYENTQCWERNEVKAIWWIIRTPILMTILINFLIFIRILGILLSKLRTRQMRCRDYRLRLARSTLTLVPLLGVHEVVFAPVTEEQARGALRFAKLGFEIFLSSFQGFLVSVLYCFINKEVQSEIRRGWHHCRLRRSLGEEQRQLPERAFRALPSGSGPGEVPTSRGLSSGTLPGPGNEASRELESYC
Experimental: as §2
(§7) We note that the albumin-binding propensity of fatty acid-modified peptides can confound a pharmacological comparison of molecules, given the common use of albumin and serum as nonspecific blocking agents in biological assays. Therefore, to obviate this, entirely albumin-free assays supplemented with bovine casein or bacitracin were used to prevent nonspecific binding ([10]).
(§8) Functional potency (EC50)
(§9) and efficacy (% Top) of ligands to induce Gα s -GTPγS binding and cAMP accumulation in HEK293 cells expressing GIPR were determined. The equilibrium affinity (KD) of
(§10) ligands for the immobilized ectodomain of the GIPR were quantified by surface plasmon resonance. […]
(§11) SPR data were analyzed using T200 evaluation software (Cytiva). All data are presented as geometric means with SEM and n values
as §1

[4] = biological target: T2, human GIPR; assay: GIPR Gαs [35S]GTPγS binding, GIPR-expressing membranes; format: biochemical; conditions: Gαs-GTPγS binding, GIPR-expressing membranes; albumin-free; geometric mean (SEM, n); read-out: GIPR GTPγS Recruitment EC50
Experimental: as §2, §7, §8, §9, §10, §11, §1

[5] = biological target: T1, GLP-1R; assay: Ligand-induced GLP-1R internalization, SNAP-GLP-1R HEK293 cells; format: cell-based; conditions: efficacy (% Top), percent internalization compared to maximal GLP-1; (SEM)
Target sequence in this assay (P43220 24-463): as the sequence (P43220 24-463) above

[6] = biological target: T1, GLP-1R; assay: β-arrestin 1 recruitment to the GLP-1R, NanoBRET; format: cell-based; set-up: expressed in transfected cells; conditions: efficacy (% Top), relative efficacy to GLP-1; (SEM)
Experimental: Functional potency (EC50) […]
and efficacy (% Top) of ligands to induce Gα s -GTPγS binding and cAMP accumulation in HEK293 cells expressing GIPR were determined. The equilibrium affinity (KD) of ligands for the immobilized ectodomain of the GIPR were quantified by surface plasmon resonance. Middle Panel: The affinity (Ki) of ligands for the GLP-1R was […]
as §5
Target sequence in this assay (P43220 24-463): as the sequence (P43220 24-463) above
Target sequence in this assay (P49407 whole entry partner): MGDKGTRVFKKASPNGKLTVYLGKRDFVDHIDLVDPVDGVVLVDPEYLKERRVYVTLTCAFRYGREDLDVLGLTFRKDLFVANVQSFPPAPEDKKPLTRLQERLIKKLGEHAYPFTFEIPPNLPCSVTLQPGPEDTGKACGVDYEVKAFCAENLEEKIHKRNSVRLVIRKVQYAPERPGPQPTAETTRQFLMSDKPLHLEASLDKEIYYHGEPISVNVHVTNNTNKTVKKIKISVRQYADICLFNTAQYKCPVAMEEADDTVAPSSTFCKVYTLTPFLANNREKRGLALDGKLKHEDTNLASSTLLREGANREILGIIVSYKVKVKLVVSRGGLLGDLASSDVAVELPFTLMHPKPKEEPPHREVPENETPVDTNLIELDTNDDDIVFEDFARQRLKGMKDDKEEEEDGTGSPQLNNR
recruitment to the GLP-1R were determined using the NanoBRET approach. The potency (EC50) and efficacy (% Top) for ligands to induce GLP-1R Internalization were determined using diffusion-enhanced resonance energy transfer. […]
relative efficacy for NanoBRET assays. SPR data were analyzed using T200 evaluation software (Cytiva). All data are presented as geometric means with SEM and n values according to established practices. ND, not determined. NA, not applicable.

[7] = biological target: T2, human GIPR; assay: [125I]GIP(1-42) competition binding, GIPR-expressing cell membranes; conditions: membranes of HEK293 cells expressing human GIPR, albumin-free, geometric mean (SEM, n)
From the text: as §7, §8, §9, §10, §11, §1

[8] = biological target: T1, GLP-1R; assay: GLP-1R Gαs [35S]GTPγS binding, GLP-1R-expressing membranes; format: biochemical; set-up: expressed in transfected cells; host or cells: HEK293; conditions: efficacy (% Top), normalized to GLP-1(7-36); (SEM)
Experimental: as §2, §3, §4, §5, §6
Target sequence in this assay (P43220 24-463): as the sequence (P43220 24-463) above

GLP-1R GRK2 Recruitment Top [1]: 54.5 (2.1) % | GLP-1R Low Density cAMP Top [2]: 104 (4) % | EC50 ([3]; cAMP accumulation, HEK293 cells expressing GIPR, albumin-free, geometric mean (SEM, n)): > 4000 nM | GIPR Low Density cAMP Top ([3]; efficacy (% Top), normalized to GIP(1-42), (SEM)): 39.4(9.5) % | EC50 [4]: > 1000 nM | GLP-1R Internalization Top [5]: 73.1 (3.4) % | GLP-1R β-Arr1 Recruitment Top [6]: 35.3 (3.8) % | Ki [7]: > 128 nM | GLP-1R GTPγS Recruitment Top [8]: 80.7 (2.2) %
Compound: CC[C@H](C)[C@H](NC(=O)[C@H](Cc1ccccc1)NC(=O)[C@H](CCC(=O)O)NC(=O)[C@H](CCCCN)NC(=O)[C@H](C)NC(=O)[C@H](C)NC(=O)[C@H](CCC(N)=O)NC(=O)CNC(=O)[C@H](CCC(=O)O)NC(=O)[C@H](CC(C)C)NC(=O)[C@H](Cc1ccc(O)cc1)NC(=O)[C@H](CO)NC(=O)[C@H](CO)NC(=O)[C@@H](NC(=O)[C@H](CC(=O)O)NC(=O)[C@H](CO)NC(=O)[C@@H](NC(=O)[C@H](Cc1ccccc1)NC(=O)[C@@H](NC(=O)CNC(=O)[C@H](CCC(=O)O)NC(=O)[C@H](C)NC(=O)[C@@H](N)Cc1ccc(O)cc1)[C@@H](C)O)[C@@H](C)O)C(C)C)C(=O)N[C@@H](C)C(=O)N[C@@H](Cc1c[nH]c2ccccc12)C(=O)N[C@@H](CC(C)C)C(=O)N[C@H](C(=O)N[C@@H](CCCCN)C(=O)NCC(=O)N[C@@H](CCCNC(=N)N)C(N)=O)C(C)C [GLP-1 H7Y, reference compound]
